Literature values in patent EP3731816B1, “SOLID ORAL PHARMACEUTICAL COMPOSITIONS COMPRISING APIXABAN” (Sanovel Ilac Sanayi ve Ticaret A.S., priority 2017, dated 2019).
Converted amounts (≈) assume the structure as drawn.

How the values were obtained:
[1] = single 10 mg dose
[2] = at 24 °C

oral bioavailability [1]: about 50% | solubility in water [2]: 28 µg/mL (≈ 60.9 µM)
Compound: COc1ccc(-n2nc(C(N)=O)c3c2C(=O)N(c2ccc(N4CCCCC4=O)cc2)CC3)cc1 [Apixaban, 1-(4-methoxyphenyl)-7-oxo-6-[4-(2-oxopiperidin-1-yl)phenyl]-4,5,6,7-tetrahydro-1H-pyrazolo[3,4-c]pyridine-3-carboxamide]
